Assay results published in ChEMBL document CHEMBL1127612, “Maleimidoethyl 3-(tri-n-butylstannyl)hippurate: a useful radioiodination reagent for protein radiopharmaceuticals to enhance target selective radioactivity localization” (J Med Chem, 1994).

Key:
Mus musculus [1] = experiment: Tested for biodistribution of radioactivity after 24 hr of intravenous injection in mice urine; type: ADME, organism-based; details: in vivo
Mus musculus [2] = experiment: Tested for biodistribution of radioactivity after 30 min of intravenous injection in mice neck; type: ADME, organism-based; details: in vivo, 0.5 h
Mus musculus [3] = experiment: Tested for biodistribution of radioactivity after 5 min of intravenous injection in mice kidneys; type: ADME, organism-based; details: in vivo
Mus musculus [4] = experiment: Tested for biodistribution of radioactivity after 24 hr of intravenous injection in mice neck; type: ADME, organism-based; details: in vivo
Mus musculus [5] = experiment: Tested for biodistribution of radioactivity after 24 hr of intravenous injection in mice stomach; type: ADME, organism-based; details: in vivo
Mus musculus [6] = experiment: Tested for biodistribution of radioactivity after 6 hr of intravenous injection in mice intestines; type: ADME, organism-based, Intestine; details: in vivo
Mus musculus [7] = experiment: Tested for biodistribution of radioactivity after 3h of intravenous injection in mice kidneys; type: ADME, organism-based, Kidney; details: in vivo
Mus musculus [8] = experiment: Tested for biodistribution of radioactivity after 30 min of intravenous injection in mice spleen; type: ADME, organism-based; details: in vivo, 0.5 h
Mus musculus [9] = experiment: Tested for biodistribution of radioactivity after 6 hr of intravenous injection in mice stomach; type: ADME, organism-based; details: in vivo
Mus musculus [10] = experiment: Tested for biodistribution of radioactivity after 6 hr of intravenous injection in mice feces; type: ADME, organism-based; details: in vivo
Mus musculus [11] = experiment: Tested for biodistribution of radioactivity after 1 hr of intravenous injection in mice kidneys; type: ADME, organism-based, Kidney; details: in vivo
Mus musculus [12] = experiment: Tested for biodistribution of radioactivity after 1 hr of intravenous injection in mice blood; type: ADME, organism-based; details: in vivo
Mus musculus [13] = experiment: Tested for biodistribution of radioactivity after 24 hr of intravenous injection in mice intestines; type: ADME, organism-based, Intestine; details: in vivo
Mus musculus [14] = experiment: Tested for biodistribution of radioactivity after 1 hr of intravenous injection in mice stomach; type: ADME, organism-based; details: in vivo
Mus musculus [15] = experiment: Tested for biodistribution of radioactivity after 24 hr of intravenous injection in mice spleen; type: ADME, organism-based; details: in vivo
Mus musculus [16] = experiment: Tested for biodistribution of radioactivity after 30 min of intravenous injection in mice liver; type: ADME, organism-based; details: in vivo, 0.5 h
Mus musculus [17] = experiment: Tested for biodistribution of radioactivity after 30 min of intravenous injection in mice kidneys; type: ADME, organism-based; details: in vivo, 0.5 h
Mus musculus [18] = experiment: Tested for biodistribution of radioactivity after 1 hr of intravenous injection in mice spleen; type: ADME, organism-based; details: in vivo
Mus musculus [19] = experiment: Tested for biodistribution of radioactivity after 6 hr of intravenous injection in mice neck; type: ADME, organism-based; details: in vivo
Mus musculus [20] = experiment: Tested for biodistribution of radioactivity after 5 min of intravenous injection in mice blood; type: ADME, organism-based; details: in vivo
Mus musculus [21] = experiment: Tested for biodistribution of radioactivity after 24 hr of intravenous injection in mice liver; type: ADME, organism-based; details: in vivo
Mus musculus [22] = experiment: Tested for biodistribution of radioactivity after 6 hr of intravenous injection in mice kidneys; type: ADME, organism-based, Kidney; details: in vivo
Mus musculus [23] = experiment: Tested for biodistribution of radioactivity after 3h of intravenous injection in mice spleen; type: ADME, organism-based; details: in vivo
Mus musculus [24] = experiment: Tested for biodistribution of radioactivity after 30 min of intravenous injection in mice blood; type: ADME, organism-based; details: in vivo, 0.5 h
Mus musculus [25] = experiment: Tested for biodistribution of radioactivity after 3h of intravenous injection in mice blood; type: ADME, organism-based; details: in vivo
Mus musculus [26] = experiment: Tested for biodistribution of radioactivity after 5 min of intravenous injection in mice spleen; type: ADME, organism-based; details: in vivo
Mus musculus [27] = experiment: Tested for biodistribution of radioactivity after 24 hr of intravenous injection in mice kidneys; type: ADME, organism-based, Kidney; details: in vivo
Mus musculus [28] = experiment: Tested for biodistribution of radioactivity after 1 hr of intravenous injection in mice intestines; type: ADME, organism-based, Intestine; details: in vivo
Mus musculus [29] = experiment: Tested for biodistribution of radioactivity after 24 hr of intravenous injection in mice blood; type: ADME, organism-based; details: in vivo
Mus musculus [30] = experiment: Tested for biodistribution of radioactivity after 30 min of intravenous injection in mice lintestines; type: ADME, organism-based, Intestine; details: in vivo, 0.5 h
Mus musculus [31] = experiment: Tested for biodistribution of radioactivity after 24 hr of intravenous injection in mice feces; type: ADME, organism-based; details: in vivo
Mus musculus [32] = experiment: Tested for biodistribution of radioactivity after 5 min of intravenous injection in mice intestines; type: ADME, organism-based, Intestine; details: in vivo
Mus musculus [33] = experiment: Tested for biodistribution of radioactivity after 3h of intravenous injection in mice intestines; type: ADME, organism-based, Intestine; details: in vivo
Mus musculus [34] = experiment: Tested for biodistribution of radioactivity after 6 hr of intravenous injection in mice blood; type: ADME, organism-based; details: in vivo
Mus musculus [35] = experiment: Tested for biodistribution of radioactivity after 30 min of intravenous injection in mice stomach; type: ADME, organism-based; details: in vivo, 0.5 h
Mus musculus [36] = experiment: Tested for biodistribution of radioactivity after 3h of intravenous injection in mice stomach; type: ADME, organism-based; details: in vivo
Mus musculus [37] = experiment: Tested for biodistribution of radioactivity after 3h of intravenous injection in mice neck; type: ADME, organism-based; details: in vivo
Mus musculus [38] = experiment: Tested for biodistribution of radioactivity after 6 hr of intravenous injection in mice spleen; type: ADME, organism-based; details: in vivo
Mus musculus [39] = experiment: Tested for biodistribution of radioactivity after 6 hr of intravenous injection in mice urine; type: ADME, organism-based; details: in vivo
Mus musculus [40] = experiment: Tested for biodistribution of radioactivity after 5 min of intravenous injection in mice neck; type: ADME, organism-based; details: in vivo
Mus musculus [41] = experiment: Tested for biodistribution of radioactivity after 3h of intravenous injection in mice liver; type: ADME, organism-based; details: in vivo
Mus musculus [42] = experiment: Tested for biodistribution of radioactivity after 5 min of intravenous injection in mice stomach; type: ADME, organism-based; details: in vivo
Mus musculus [43] = experiment: Tested for biodistribution of radioactivity after 6 hr of intravenous injection in mice liver; type: ADME, organism-based; details: in vivo
Mus musculus [44] = experiment: Tested for biodistribution of radioactivity after 5 min of intravenous injection in mice liver; type: ADME, organism-based; details: in vivo
Mus musculus [45] = experiment: Tested for biodistribution of radioactivity after 1 hr of intravenous injection in mice liver; type: ADME, organism-based; details: in vivo
Mus musculus [46] = experiment: Tested for biodistribution of radioactivity after 1 hr of intravenous injection in mice neck; type: ADME, organism-based; details: in vivo

SMILES: CCc1ccc(O)c(I)c1
- Dose/organ (Mus musculus [1]): 79.66%
- Dose/organ (Mus musculus [2]): 0.7%
- Dose/organ (Mus musculus [3]): 0.01%
- Dose/organ (Mus musculus [4]): 0.01%
- Dose/organ (Mus musculus [5]): 0.11%
- Dose/organ (Mus musculus [6]): 3.06%
- Dose/organ (Mus musculus [7]): 0.83%
- Dose/organ (Mus musculus [8]): 0.3%
- Dose/organ (Mus musculus [9]): 13.22%
- Dose/organ (Mus musculus [10]): 0.31%
- Dose/organ (Mus musculus [11]): 1.73%
- Dose/g (Mus musculus [12]): 5.14%
- Dose/organ (Mus musculus [13]): 0.21%
- Dose/organ (Mus musculus [14]): 25.55%
- Dose/organ (Mus musculus [15]): 0.02%
- Dose/organ (Mus musculus [16]): 18.72%
- Dose/organ (Mus musculus [17]): 2.07%
- Dose/organ (Mus musculus [18]): 0.23%
- Dose/organ (Mus musculus [19]): 0.21%
- Dose/g (Mus musculus [20]): 0.15%
- Dose/organ (Mus musculus [21]): 0.37%
- Dose/organ (Mus musculus [22]): 0.57%
- Dose/organ (Mus musculus [23]): 0.1%
- Dose/g (Mus musculus [24]): 5.35%
- Dose/g (Mus musculus [25]): 1.4%
- Dose/organ (Mus musculus [26]): 0.06%
- Dose/organ (Mus musculus [27]): 0.04%
- Dose/organ (Mus musculus [28]): 6.73%
- Dose/g (Mus musculus [29]): 0.12%
- Dose/organ (Mus musculus [30]): 8.28%
- Dose/organ (Mus musculus [31]): 3.22%
- Dose/organ (Mus musculus [32]): 0.16%
- Dose/organ (Mus musculus [33]): 3.43%
- Dose/g (Mus musculus [34]): 1.59%
- Dose/organ (Mus musculus [35]): 15.65%
- Dose/organ (Mus musculus [36]): 17.5%
- Dose/organ (Mus musculus [37]): 0.25%
- Dose/organ (Mus musculus [38]): 0.06%
- Dose/organ (Mus musculus [39]): 26.84%
- Dose/organ (Mus musculus [40]): 0.04%
- Dose/organ (Mus musculus [41]): 1.44%
- Dose/organ (Mus musculus [42]): 0.25%
- Dose/organ (Mus musculus [43]): 1.13%
- Dose/organ (Mus musculus [44]): 92.49%
- Dose/organ (Mus musculus [45]): 3.68%
- Dose/organ (Mus musculus [46]): 0.34%
